Data taken from patent US20030055018A1, “Modulation of phosphoinositide 3-kinase activity” (priority 2001, published 2003).

Columns and labels:
HaCaT cells = test: Suspension survival assay of HaCaT keratinocytes; assay type: cell-based, human
Experimental: FIG. 8 is presented to complementary roles of tyrosine kinase and small GTPase signals induced by integrin or growth factor stimulation, in PI3K/Akt activation and cell survival. […] Akt kinase activity in cell lysates harvested 30 minutes later was measured by in vitro phosphorylation of H2B. […] HaCaT cells or HaCaT cells stably-expressing activated H-Ras G12V were cultured on 0.9% agarose in MCDB base medium. EGF was used at 2 nM concentration in the indicated culltures. Cell aliquots were removed after 6 hours in suspension for immunoblot analysis. Cell viability was examined after 10 days in suspension as described (Jost et al., 2001, Mol Biol Cell 12, 1519-27). (C) A model of PI3K activation by tyrosine kinase- and small GTPase signals. According to this model, p85 binds, via its cSH2 motif, tyrosine phosphorylated proteins and undergoes phosphorylation at Y688. Phosphorylation at this site, functionally inactivates the p85 inhibitory domain. Neutralization of the inhibitory domain renders p85 responsive to PI3K activation signals that are transduced by small GTPases.
These experiments were carried out in serum-free define media. The constitutively-active H-Ras G12V activates the PI3K/Akt pathway and rescues cells from anoikis only in suspension cultures supplemented with epidermal growth factor (EGF) (FIG. 8B). […] Thus, PI3K/Akt activation and inhibition of anoikis depend on the combination of tyrosine kinase and small GTPase signals.
Suspension survival assay were performed as previously described (Jost et al., 2001, Mol Biol Cell 12, 1519-27). […] Cell viability was measured after 10 days in suspension. Cell viability was analysed by crystal violet staining of cells reseeded after 10 days of suspension culture onto tissue culture-treated plastic and allowed to grow for 3 days. […]

PI3K/Akt pathway = test: Akt activation in transfected NIH3T3 cells (H2B phosphorylation by immunoprecipitated FLAG-Akt, or Akt Thr308 immunoblot); assay type: cell-based, mouse
From the text: Specifically, to show whether membrane-associated full-length p85 is functionally similar to the carboxy-terminally truncated protein the p85 fused at its amino-terminus to a peptide encoding the Src myristoylation signal (Myrp85-WT) (FIG. 2A), was transiently expressed in NIH3T3 cells in combination with FLAG-Akt or FLAG-Akt plus H-Ras. Myrp85Δonc was used as a control. The cells were lysed forty-eight hours later, following overnight serum starvation. Akt activation in this, and subsequent experiments, was determined by measuring the phosphorylation of histone 2B (H2B) by immunoprecipitated Akt.
Akt/PKB activation by phosphorylation strictly depends on the binding of the Akt PH domain to PtdIns-3,4,5-P3 and therefore, indirectly measures intracellular PtdIns-3,4,5-P3 levels (Chan et al., 1999, Ann Rev Biochem 68, 965-1015). Akt/PKB kinase activation was determined either by measuring the phosphorylation of Akt at Thr308 using an antibody from Cell Signaling Technology or by measuring the kinase activity of immunoprecipitated FLAG-tagged wild type Akt. The activity of immunoprecepitated Akt was measured using Histone 2B as the substrate, and following previously described protocols (Bellacosa et al., 1998, Oncogene 17, 313-25; Franke et al., 1995, Cell 81, 727-736) with slight modifications. Briefly, cells were lysed on ice using a NP40 lysis buffer (25 mM Tris-HCl pH 7.6, 137 mM NaCl, 10% glycerol, 1% NP40, 10 mM NaF) freshly supplemented with 1 mM Sodium pyrophosphate, 5 μg/ml leupeptin, 5 μg/ml aprotinin, 1 mM EDTA, 10 mM PMSF, 1 mM NaVO4 and 1 mM DTT. […] The phosphorylated Histone H2B was visualized by autoradiography and quantitated by Phosphorlmager (Molecular Dynamics). Akt expression was determined by probing the membranes with a polyclonal rabbit anti-Akt antibody.
Specific Akt kinase activity was determined by Phosphorimager-quantitation of the ^32P-phosphorylated Akt substrate Histone 2B, and by quantification of Akt in anti-Akt immunoprecipitates using a laser densitometry scanner (Molecular Dynamics). […]

PI3K = test: PtdIns-3,4,5-P3 measured by thin layer chromatography in lipid extracts of 32P-labeled transfected NIH3T3 cells; assay type: cell-based, mouse; details: construct co-transfected with constitutively-active H-Ras G12V; serum-free; 32P-orthophosphate 1.5 h
Experimental: In FIG. 1, it is shown that p85 inhibits while p85Δonc enhances PI3K activation by small GTPases. (A) Schematic diagrams and expression of transiently transfected HA-tagged p85-WT and p85Δonc constructs. (B) Upper panel. p85-WT inhibits while p85Δonc enhances HRas-induced PtdIns-3, 4, 5-P3 production. The indicated constructs were transiently transfected into NIH3T3 cells. Sixteen hours after transfection, the cells were cultured in serum-free media. Five hours later, they were labeled with ^32P-orthophosphate for 1.5 hours. Total phospholipids were analyzed by thin layer chromatography. (B) Lower panel. p85-WT inhibits while p85Δonc enhances H-Ras induced Akt phosphorylation. Immunoblots of cell extracts from duplicate transfections were probed with an antibody that recognizes Akt phosphorylated at Thr308 or with antibodies that recognize the proteins expressed from the transfected constructs. […] NIH3T3 cells were transiently transfected with the indicated constructs. ^32P-labeled PtdIns-3, 4, 5-P3 was measured as described in B. Akt phosphorylation at Thr308 and expression of transfected constructs were determined by probing immunoblots with the corresponding antibodies. […]
PtdIns-3, 4, 5-P3 was measured in lipid extracts of ^32P-labeled NIH3T3 cells by thin layer chromatography (Maehama et al., 1998, J Biol Chem 273, 13375-8). […]

| Substance | Long-term cell survival (10 days) in suspension, cells expressing activated H-Ras G12V (HaCaT cells; EGF 2 nM, serum-free defined medium) | Rescue from anoikis, HaCaT cells without H-Ras G12V (HaCaT cells; EGF alone, 2 nM) | PI3K/Akt activation, HaCaT cells without H-Ras G12V (HaCaT cells; EGF alone, 2 nM, 6 hours in suspension) | PI3K activation by Ras signals in the presence of NM-Src (PI3K/Akt pathway; H-Ras-G12V plus NM-Src, PtdIns-3,4,5-P3 and Akt Thr308) | H-Ras induced Akt phosphorylation at Thr308 (PI3K/Akt pathway; co-transfected with H-Ras G12V, immunoblot) | PI3K/Akt activation by H-Ras (Akt kinase activity, H2B phosphorylation) (PI3K/Akt pathway; co-transfected with constitutively-active H-Ras and FLAG-Akt, overnight serum starvation) | H-Ras-induced PtdIns-3, 4, 5-P3 production (PI3K) |
| --- | --- | --- | --- | --- | --- | --- | --- |
| epidermal growth factor (NSDSECPLSHDGYCLHDGVCMYIEALDKYACNCVVGYIGERCQYRDLKWWELR; Epidermal growth factor; UniProt P01133 971-1023, looked up) [EGF] | cooperate to support long-term cell survival | failed to rescue | inefficient |  |  |  |  |
| p85-WT: HA-tagged construct of wild-type p85, regulatory subunit of PI3K |  |  |  | does not inhibit | inhibits | blocks | inhibits |
